Read-outs that look alike come from different tables or passages of the source. *1 amine or outer side, *2 acyl side, *3 side chain or, on linkers, in order; H or OH if unused. Where a SMILES comes first, the peptide text is derived from it. Side-chain parts run from the residue outwards. [ ]: non-standard residue; d: D form. The star is where a group is joined. HSG = histamine succinyl glycyl group, O=C(CCC(=O)NCC(=O)*)NCCc1c[nH]cn1; DOTA = O=C(O)CN1CCN(CC(=O)O)CCN(CC(=O)*)CCN(CC(=O)O)CC1; NH(2-(imidazol-4-yl)ethyl) = c1ncc(CCN*)[nH]1; Suc = O=C(CCC(=O)[*:2])[*:1]
Tests used:
[1] = mouse, in vivo; cited from earlier work
679 IgG = assay: Binding of labeled peptide to excess 679 IgG by size exclusion HPLC; parameters: species or system murine; details: ^90Y labeled peptide
Experimental: The ^90Y (˜400 μCi/kit) was diluted to 1 mL in deionized water and added to the lyophilized kits. The kits were heated in a boiling water bath for 15 min, the vials were cooled to room temperature and the labeled peptides were evaluated by reverse phase HPLC (HPLC conditions: Waters Nova-Pak C-18, 8×100 mm RCM column eluted at 3 mL/min with a linear gradient from 100% (0.1% TFA in H2O) to 100% (90% CH3CN, 0.1% TFA, 10% H2O)).
The ^111In (˜300 μCi/kit) was diluted to 0.5 mL in deionized water and added to the lyophilized kits. The kits were heated in a boiling water bath for 15 min, the vials were cooled and 0.5 mL of 2.56×10^−5 M In in 0.5 M acetate buffer was added and the kits were again heated in the boiling water bath for 15 min. The labeled peptide vials were cooled to room temperature and evaluated by reverse phase HPLC (HPLC conditions: Waters Nova-Pak C-18, 8×100 mm RCM column eluted at 3 mL/min with a linear gradient from 100% (0.1% TFA in H2O) to 100% (90% CH3CN, 0.1% TFA, 10% H2O)).
The mixture was centrifuged and DTPA was added to a final concentration of 3 mM. After 15 min at room temperature, the final volume was raised to 1.0 mL with 0.1 M sodium acetate, pH 6.5. The amount of unbound isotope was determined by reverse phase HPLC and ITLC developed in saturated sodium chloride solution. […]

[2] = assay type: in vitro ADME, mouse
Text: The peptide was monitored as described above by HPLC.

GW-39 [3] = system: GW-39; parameters: species or system nude mice; details: mouse, in vivo
Experimental: (§1) Female NCr nude mice Charles River Laboratories, Inc., Fredrick Md. or Taconic, Germantown, N.Y.) approximately 6 weeks of age were implanted subcutaneously with 0.2 ml of this suspension. Two to three weeks after implantation of tumors, animals were injected with the radiolabeled peptide alone, or for pretargeting, with the bsMAb followed 1 to 2 days later with the radiolabeled peptide. […] At the designated times after the peptide injection, animals were anesthetized, bled by cardiac puncture, and then euthanized prior to necropsy. Tissues were removed, weighed and counted by gamma scintillation using appropriate windows for each radionuclide along with standards prepared from the injected materials. When dual isotope counting was used, appropriate backscatter correction was made. GI tissues (stomach, small intestine and large intestine were weighed and counted with their contents. Data are expressed as the percent injected dose per gram tissue (% ID/g) and the ratio of the percentages in the tumor to the normal tissues (T/NT). All values presented in the tables and figures represent the mean and standard deviation of the calculated values with the number of animals used for each study provided therein.

GW-39 [4] = assay: Comparison of ^177Lu-IMP-241 and ^111In-IMP-241 pretargeting using hMN-14 × m679 F(ab′)2 bsMAb (24 h bsMAb clearance); assay type: in vivo, nude mice; details: listed as 111In-IMP-241
Experimental: as §1

in vivo = assay: in vivo; parameters: species or system nude mice; details: female, NCr nude, mouse, total radioactivity, % ID/g
Experimental: as §1, with “GW-39, a CEA-producing human colon cancer cell line (See, Goldenberg, D. M. and Hansen, H. […] Female” for “Female”, “suspension.” for “suspension. Two to three weeks after implantation of tumors, animals were injected with the radiolabeled peptide alone, or for pretargeting, with the bsMAb followed 1 to 2 days later with the radiolabeled peptide.”

GW-39 [5] = assay: in vivo; parameters: species or system nude mice; details: mouse
Experimental: as §1, with “GW-39, a CEA-producing human colon cancer cell line (See, Goldenberg, D. M. and Hansen, H. […] Female” for “Female”, “suspension.” for “suspension. Two to three weeks after implantation of tumors, animals were injected with the radiolabeled peptide alone, or for pretargeting, with the bsMAb followed 1 to 2 days later with the radiolabeled peptide.”

[6] = Comparison of ^177Lu-IMP-241 and ^111In-IMP-241 pretargeting using hMN-14 × m679 F(ab′)2 bsMAb (24 h bsMAb clearance); assay type: in vivo, nude mice; details: female, NCr nude, mouse, iv, total radioactivity, read-out: Percent Injected Dose Per Gram; for tissue uptake at 3 h: 3 hour after peptide; for tissue uptake at 24 h: 24 hour after peptide
Experimental: as §1

[7] = Immunoreactive fraction of ^99mTc-hMN-14 Fab′; assay type: binding
Experimental: (§2) Humanized MN-14 (hMN-14) Fab′-SH was prepared in a similar manner as described previously. ^99mTc-pertechnetate (30 mCi) was added directly to the lyophilized hMN-14-Fab′-SH (1.0 mg) and injected in animals within 30 minutes. This product had 3.0% unbound ^99mTc by ITLC and an immunoreactive fraction of 92%.

GW-39 tumor = assay: Tumor/nontumor ratios for directly labeled ^99mTc-hMN-14 Fab′; assay type: in vivo, nude mice; details: 3 h after injection
Experimental: as §2, §1

[8] = Enzymatic analysis of carboxylesterase-DTPA conjugate; assay type: biochemical, rabbit
Experimental: (§3) After 1 hour of incubation, the mixture is pre-purified on two 5-mL spin-columns (Sephadex G50/80 in 0.1 M sodium phosphate pH 7.3) to remove excess reagent and DMSO. The eluate is purified on a TSK 3000G Supelco column using 0.2 M sodium phosphate pH 6.8 at 4 ml/min. The fraction containing conjugate is concentrated on a Centricon-10™ concentrator, and buffer-exchanged with 0.1 M sodium acetate pH 6.5. […] Incorporation by HPLC and ITLC analyses is 97.7%.

hMN-14 Fab′×734 Fab′ = assay: HPLC complexation of In-111 carboxylesterase-DTPA with bi-specific antibody; assay type: binding; details: 20-fold molar excess of hMN-14 Fab′×734 Fab′
Experimental: as §3

## COc1cccc2c1C(=O)c1c(O)c3c(c(O)c1C2=O)C[C@@](O)(C(=O)CO)C[C@@H]3O[C@H]1C[C@H](N)[C@H](O)[C@H](C)O1 [Doxorubicin]
[1]
  hepatobiliary clearance: ~95%

## ^90Y-IMP-241: IMP 241 divalent HSG-DOTA peptide radiolabeled with ^90Y ({DOTA}-FK(HSG)YK(HSG)-NH2; not fully specified (residue 3); also: DOTA loaded with 90Y)
679 IgG
  binding to excess 679 IgG by size exclusion HPLC: binding to the antibody

## NC(=O)[C@H](CCCCNC(=O)CNC(=O)CCC(=O)NCCc1cnc[nH]1)NC(=O)[C@@H](Cc1ccc(O)cc1)NC(=O)[C@H](CCCCNC(=O)CNC(=O)CCC(=O)NCCc1cnc[nH]1)NC(=O)[C@H](Cc1ccccc1)NC(=O)CN1CCN(CC(=O)O)CCN(CC(=O)O)CCN(CC(=O)O)CC1 [IMP 241, DOTA-Phe-Lys(HSG)-D-Tys-Lys(HSG)-NH2] ({DOTA}-FK([Gly-Suc-NH(2-(imidazol-4-yl)ethyl)])[dY]K([Gly-Suc-NH(2-(imidazol-4-yl)ethyl)])-NH2)
[2]
  decomposed in mouse serum: ~5%
GW-39 [3]
  increase of tumor accretion by pretargeting compared to the peptide alone: ~100 fold
GW-39 [4]; Blood, 3 hour after peptide
  Percent Injected Dose Per Gram: 1.87 ± 0.97 % ID/g
GW-39 [4]; Kidney, 3 hour after peptide
  Percent Injected Dose Per Gram: 3.00 ± 0.87 % ID/g
GW-39 [4]; Liver, 3 hour after peptide
  Percent Injected Dose Per Gram: 0.57 ± 0.24 % ID/g
GW-39 [4]; Lungs, 3 hour after peptide
  Percent Injected Dose Per Gram: 0.81 ± 0.33 % ID/g
GW-39 [4]; Lungs, 24 hour after peptide
  Percent Injected Dose Per Gram: 0.24 ± 0.07 % ID/g
GW-39 [4]; Tumor, 3 hour after peptide
  Percent Injected Dose Per Gram: 8.76 ± 2.31 % ID/g
GW-39 [4]; Tumor, 24 hour after peptide
  Percent Injected Dose Per Gram: 2.54 ± 1.04 % ID/g

## NC(=O)[C@H](CCCCNC(=O)CNC(=O)CCC(=O)NCCc1cnc[nH]1)NC(=O)[C@@H](Cc1ccc(O)cc1)NC(=O)[C@H](CCCCNC(=O)CNC(=O)CCC(=O)NCCc1cnc[nH]1)NC(=O)[C@H](Cc1ccccc1)NC(=O)CN1CCN(CC(=O)O)CCN(CC(=O)O)CCN(CC(=O)O)CC1 [^177Lu-IMP-241, metal not drawn] ({DOTA}-FK([Gly-Suc-NH(2-(imidazol-4-yl)ethyl)])[dY]K([Gly-Suc-NH(2-(imidazol-4-yl)ethyl)])-NH2)
In vivo
  tissue uptake at 48 h: 0.94 ± 0.2 %ID/g
GW-39 [5]
  decrease in kidneys compared to the level seen at 24 h: ~45%
[6]; blood, Blood
  tissue uptake at 3 h: 1.48 ± 0.19 %ID/g
  tissue uptake at 24 h: 0.36 ± 0.05 %ID/g
[6]; kidney, Kidney
  tissue uptake at 3 h: 3.61 ± 0.43 %ID/g
  tissue uptake at 24 h: 0.18 ± 0.03 %ID/g
[6]; liver, Liver
  tissue uptake at 3 h: 0.46 ± 0.08 %ID/g
  tissue uptake at 24 h: 0.17 ± 0.04 %ID/g
[6]; lungs, Lungs
  tissue uptake at 3 h: 0.64 ± 0.12 %ID/g
  tissue uptake at 24 h: 0.17 ± 0.02 %ID/g
[6]; spleen, Spleen
  tissue uptake at 3 h: 0.36 ± 0.04 %ID/g
  tissue uptake at 24 h: 0.29 ± 0.07 %ID/g
[6]; tumor, Tumor
  tissue uptake at 3 h: 9.71 ± 2.49 %ID/g
  tissue uptake at 24 h: 2.59 ± 0.3 %ID/g

## ^99mTc-hMN-14 Fab′: humanized MN-14 anti-CEA Fab′ directly radiolabeled with ^99mTc
[7]
  immunoreactive fraction: 92%
GW-39 tumor; Blood
  Tumor/nontumor ratio: 1.0 ± 0.01
GW-39 tumor; Kidney
  Tumor/nontumor ratio: 0.02 ± 0.001
GW-39 tumor; Liver
  Tumor/nontumor ratio: 0.2 ± 0.02
GW-39 tumor; Lungs
  Tumor/nontumor ratio: 0.7 ± 0.1
GW-39 tumor; Spleen
  Tumor/nontumor ratio: 0.9 ± 0.4

B1: Carboxylesterase-DTPA (conjugate)
chain: HPSAPPVVDTVHGKVLGKFVSLEGFAQPVAVFLGVPFAKPPLGSLRFAPPQPAESWSHVKNTTSYPPMCSQDAVSGHMLSELFTNRKENIPLKFSEDCLYLNIYTPADLTKRGRLPVMVWIHGGGLMVGGASTYDGLALSAHENVVVVTIQYRLGIWGFFSTGDEHSRGNWGHLDQVAALRWVQDNIANFGGDPGSVTIFGESAGGQSVSILLLSPLTKNLFHRAISESGVALLSSLFRKNTKSLAEKIAIEAGCKTTTSAVMVHCLRQKTEEELMEVTLKMKFMALDLVGDPKENTAFLTTVIDGVLLPKAPAEILAEKKYNMLPYMVGINQQEFGWIIPMQMLGYPLSEGKLDQKTATELLWKSYPIVNVSKELTPVATEKYLGGTDDPVKKKDLFLDMLADLLFGVPSVNVARHHRDAGAPTYMYEYRYRPSFSSDMRPKTVIGDHGDEIFSVLGAPFLKEGATEEEIKLSKMVMKYWANFARNGNPNGEGLPQWPAYDYKEGYLQIGATTQAAQKLKDKEVAFWTELWAKEAARPRETEHIEL
[8]
  enzymatic activity: 115 enzyme units/mg protein
hMN-14 Fab′×734 Fab′
  complexation with bi-specific antibody (HPLC): completely complexed
